Measurements: patent publication US11136292B2, “Plant growth regulator compounds” (SYNGENTA PARTICIPATIONS AG, priority 2016, dated 2021)
Read-outs that look alike come from different tables or passages of the source.

Tested on: NK Falkone 2015 corn seeds
Test: Corn seed germination under cold stress (Example B1)
Assay type: in vivo
Conditions: Zea mays, cold stress 15° C.; for change in vivo at 2 µM: Rate 2 μM; for change in vivo at 10 µM: Rate 10 μM; for change in vivo at 50 µM: Rate 50 μM; for change in vivo at 250 µM: Rate 250 μM
Description: The effect of compounds of formula (I) on the germination of NK Falkone 2015 corn seeds under cold stress was evaluated as follows. NK Falkone corn seeds were sorted by size using 2 sieves, one excluding very big seeds and the other with round holes of 8 to 9 mm diameter. The seeds retained by the latter sieve were used for the germination test. The corn seeds were placed in 24 well plates (each plate was considered as one experimental unit or replicate). Germination was initiated by the addition of 250 μl of distilled water containing 0.5% DMSO per well as a means for compound solubilization. 8 replicates (ie, 8 plates) were used for each treatment characterization. Plates were sealed using seal foil (Polyolefin Art. Nr. 900320) from HJ-BIOANALYTIK. All plates were placed horizontally on trolleys in a climatic chamber at 15° C. The experiment was laid out in a completely randomized design in climatic chamber with 75% Relative Humidity. Foils were pierced, one hole per well using a syringe after 72 hours for experiments performed at 15° C.
Germination was followed over time by taking photographs at different time points. Image analysis was performed automatically with a macro which was developed using the Image J software. A dynamic analysis of germination was carried out by fitting a logistic curve. Three parameters were calculated from the logistic curve: the T50; the slope and the plateau. All three parameters have a high agronomical relevance and are key requirements to ensure a good early crop-establishment. All the values are expressed as percentages compared to an untreated control. All the three parameters are calculated considering 8 replicates and the kinetic parameters are separately determined for each germination curve. Data in bold indicate germination enhancing statistically significant differences between treated seeds and untreated control (p<0.05). The T50 corresponds to the time needed for half of the seed population to germinate. Higher negative %-values indicate faster germination. The slope indicates how synchronous the germination of the seed population is. Positive values indicate steeper curve; the steeper the curve, the better and more uniform the germination is.

[1] = slope of logistic germination curve, read-out: Slope (% vs control)
[2] = time for half of seeds to germinate, control T50 = 110 hours, read-out: T50 (% vs control)

Which results are given for `CCOC(=O)/C(=C/OC1C=C(C)C(=O)O1)C1CCc2ccccc21` (stereo not shown) [Compound I-1]?
change in vivo at 2 µM [1]: 8.1%; change in vivo at 2 µM [2]: -0.5%; change in vivo at 10 µM [1]: 10%; change in vivo at 10 µM [2]: 1.6%; change in vivo at 50 µM [1]: 27.9%; change in vivo at 50 µM [2]: -2.8%; change in vivo at 250 µM [1]: 142%; change in vivo at 250 µM [2]: -7.2%

`CCOC(=O)/C(=C/OC1OC(=O)C(C)=C1C)C1CCc2ccccc21` (stereo not shown) [Compound I-2] was tested. Which change in vivo at 2 µM [1] did it give?
Its change in vivo at 2 µM is -11.8%.

What about the change in vivo at 2 µM [2] of the same compound?
The change in vivo at 2 µM was 2.3%.

What about the change in vivo at 10 µM [1] of the same compound?
Its change in vivo at 10 µM is 18.1%.

What about the change in vivo at 10 µM [2] of the same compound?
The change in vivo at 10 µM was -3%.

What about the change in vivo at 50 µM [1] of the same compound?
Its change in vivo at 50 µM is 47%.

And the change in vivo at 50 µM [2]?
Its change in vivo at 50 µM is -6.2%.

And the change in vivo at 250 µM [1]?
Its change in vivo at 250 µM is 121%.

And the change in vivo at 250 µM [2]?
The change in vivo at 250 µM was -10.1%.

How did the change in vivo at 2 µM [1] turn out when `CCOC(=O)/C(=C/OC1C=C(C)C(=O)N1c1cc(C(F)(F)F)cc(C(F)(F)F)c1)C1CCc2ccccc21` (stereo not shown) [Compound I-7] was run?
The change in vivo at 2 µM was 63.9%.

What about the change in vivo at 2 µM [2] of the same compound?
The change in vivo at 2 µM was -3.4%.

What about the change in vivo at 10 µM [1] of the same compound?
Its change in vivo at 10 µM is 69.8%.

What about the change in vivo at 10 µM [2] of the same compound?
The change in vivo at 10 µM was -3.5%.

And the change in vivo at 50 µM [1]?
The change in vivo at 50 µM was 78.8%.

And the change in vivo at 50 µM [2]?
Its change in vivo at 50 µM is -6.6%.

What about the change in vivo at 250 µM [1] of the same compound?
Its change in vivo at 250 µM is 11.3%.

What about the change in vivo at 250 µM [2] of the same compound?
The change in vivo at 250 µM was -1.8%.

With `COC(=O)/C(=C/OC1C=C(C)C(=O)O1)C1CCc2ccccc21` (stereo not shown) [Compound I-10] as the compound, how does the change in vivo at 2 µM [1] read?
Its change in vivo at 2 µM is 8.2%.

What about the change in vivo at 2 µM [2] of the same compound?
The change in vivo at 2 µM was -0.9%.

And the change in vivo at 10 µM [1]?
Its change in vivo at 10 µM is 10.7%.

And the change in vivo at 10 µM [2]?
The change in vivo at 10 µM was -0.8%.

What about the change in vivo at 50 µM [1] of the same compound?
Its change in vivo at 50 µM is 30.3%.

What about the change in vivo at 50 µM [2] of the same compound?
Its change in vivo at 50 µM is -3.3%.

And the change in vivo at 250 µM [1]?
The change in vivo at 250 µM was 82.5%.

What about the change in vivo at 250 µM [2] of the same compound?
The change in vivo at 250 µM was -7.4%.

How did the change in vivo at 2 µM [1] turn out when `COC(=O)/C(=C/OC1OC(=O)C(C)=C1C)C1CCc2ccccc21` (stereo not shown) [Compound I-11] was run?
Its change in vivo at 2 µM is 11.4%.

What about the change in vivo at 2 µM [2] of the same compound?
Its change in vivo at 2 µM is -1%.

What about the change in vivo at 10 µM [1] of the same compound?
The change in vivo at 10 µM was 7.4%.

And the change in vivo at 10 µM [2]?
Its change in vivo at 10 µM is 0.2%.

And the change in vivo at 50 µM [1]?
The change in vivo at 50 µM was 20.1%.

And the change in vivo at 50 µM [2]?
Its change in vivo at 50 µM is -5.1%.

What about the change in vivo at 250 µM [1] of the same compound?
The change in vivo at 250 µM was 89.6%.

And the change in vivo at 250 µM [2]?
Its change in vivo at 250 µM is -6.9%.

`CNC(=O)/C(=C/OC1C=C(C)C(=O)O1)C1CCc2ccccc21` (stereo not shown) [Compound I-37-1] was tested. Which change in vivo at 2 µM [1] did it give?
The change in vivo at 2 µM was 10.8%.

What about the change in vivo at 2 µM [2] of the same compound?
Its change in vivo at 2 µM is -1.3%.

And the change in vivo at 10 µM [1]?
The change in vivo at 10 µM was -15.7%.

And the change in vivo at 10 µM [2]?
Its change in vivo at 10 µM is -2.5%.

And the change in vivo at 50 µM [1]?
The change in vivo at 50 µM was 5.2%.

What about the change in vivo at 50 µM [2] of the same compound?
Its change in vivo at 50 µM is -2.6%.

And the change in vivo at 250 µM [1]?
Its change in vivo at 250 µM is 51.7%.

And the change in vivo at 250 µM [2]?
Its change in vivo at 250 µM is -4.6%.

What does the source list for `CNC(=O)/C(=C/OC1C=C(C)C(=O)N1c1cc(C(F)(F)F)cc(C(F)(F)F)c1)C1CCc2ccccc21` (stereo not shown) [Compound I-55-1]?
change in vivo at 2 µM [1]: -8.1%; change in vivo at 2 µM [2]: 1.7%; change in vivo at 10 µM [1]: 3.8%; change in vivo at 10 µM [2]: -1.4%; change in vivo at 50 µM [1]: 61.1%; change in vivo at 50 µM [2]: -6.8%; change in vivo at 250 µM [1]: 89.8%; change in vivo at 250 µM [2]: -10.6%

For `CCOC(=O)/C(=C/OC1C=C(C)C(=O)O1)C1CCc2cc(OC)c(OC)cc21` (stereo not shown) [Compound I-64], which change in vivo at 2 µM [1] is on record?
The change in vivo at 2 µM was 1.1%.

What about the change in vivo at 2 µM [2] of the same compound?
Its change in vivo at 2 µM is -1.4%.

And the change in vivo at 10 µM [1]?
Its change in vivo at 10 µM is -1.6%.

And the change in vivo at 10 µM [2]?
The change in vivo at 10 µM was -3.2%.

And the change in vivo at 50 µM [1]?
The change in vivo at 50 µM was 27.9%.

What about the change in vivo at 50 µM [2] of the same compound?
Its change in vivo at 50 µM is -4.6%.

And the change in vivo at 250 µM [1]?
The change in vivo at 250 µM was 83.8%.

And the change in vivo at 250 µM [2]?
Its change in vivo at 250 µM is -10.7%.

Which change in vivo at 2 µM [1] does the source give for `CCOC(=O)/C(=C/OC1OC(=O)C(C)=C1C)C1CCc2cc(OC)c(OC)cc21` (stereo not shown) [Compound I-65] here?
The change in vivo at 2 µM was 1%.

What about the change in vivo at 2 µM [2] of the same compound?
The change in vivo at 2 µM was -0.9%.

What about the change in vivo at 10 µM [1] of the same compound?
Its change in vivo at 10 µM is 18.8%.

What about the change in vivo at 10 µM [2] of the same compound?
Its change in vivo at 10 µM is -3.1%.

And the change in vivo at 50 µM [1]?
Its change in vivo at 50 µM is 23%.

What about the change in vivo at 50 µM [2] of the same compound?
The change in vivo at 50 µM was -2.6%.

What about the change in vivo at 250 µM [1] of the same compound?
The change in vivo at 250 µM was 123%.

What about the change in vivo at 250 µM [2] of the same compound?
The change in vivo at 250 µM was -12.6%.

With `CCOC(=O)/C(=C/OC1C=C(C)C(=O)O1)C1CCc2cc3c(cc21)OCO3` (stereo not shown) [Compound I-66] as the compound, how does the change in vivo at 2 µM [1] read?
Its change in vivo at 2 µM is 22.6%.

What about the change in vivo at 2 µM [2] of the same compound?
Its change in vivo at 2 µM is -5.2%.

And the change in vivo at 10 µM [1]?
The change in vivo at 10 µM was 2.9%.

What about the change in vivo at 10 µM [2] of the same compound?
Its change in vivo at 10 µM is -2.9%.

And the change in vivo at 50 µM [1]?
Its change in vivo at 50 µM is 34.5%.

What about the change in vivo at 50 µM [2] of the same compound?
The change in vivo at 50 µM was -5.1%.

What about the change in vivo at 250 µM [1] of the same compound?
The change in vivo at 250 µM was 31.6%.

And the change in vivo at 250 µM [2]?
The change in vivo at 250 µM was -5.8%.

With `CCOC(=O)/C(=C/OC1C=C(C)C(=O)O1)C1CCc2c(C)cccc21` (stereo not shown) [Compound I-68] as the compound, how does the change in vivo at 2 µM [1] read?
The change in vivo at 2 µM was 23.4%.

And the change in vivo at 2 µM [2]?
Its change in vivo at 2 µM is -1.2%.

And the change in vivo at 10 µM [1]?
The change in vivo at 10 µM was 3.8%.

What about the change in vivo at 10 µM [2] of the same compound?
Its change in vivo at 10 µM is -0.6%.

And the change in vivo at 50 µM [1]?
Its change in vivo at 50 µM is 44.7%.

And the change in vivo at 50 µM [2]?
The change in vivo at 50 µM was -5.7%.

What about the change in vivo at 250 µM [1] of the same compound?
Its change in vivo at 250 µM is 113%.

And the change in vivo at 250 µM [2]?
Its change in vivo at 250 µM is -6.8%.
